For orientation: EC50 means the concentration at which the effect is half-maximal.

Assay [1] concerns the target T1, Human GPR40 (Homo sapiens, UniProt O14842). In words: Inositol phosphate turnover (IP1) assay in HEK cells stably expressing human GPR40. The assay is classed as cell-based. Also noted: expressed in transfected cells. The conditions noted are these: HEK cells stably expressing human GPR40, 3H-inositol labeling, 60 min compound incubation. The protocol: (§1) Human and mouse GPR40 stable cell-lines were generated in CHO cells stably expressing NFAT BLA (Beta-lactamase). A human GPR40 stable cell-line was generated in HEK cells stably expressing the aequorin expressing reporter. The expression plasmids were transfected using lipofectamine, LIFE TECHNOLOGIES (Carlsbad, Calif.), following manufacturer's instructions. Stable cell-lines were generated following drug selection.
The assay is performed in a 96-well format. HEK cells stably expressing human GPR40 are plated to be 60-80% confluent within 72 h. After 72 h, the plates are aspirated and the cells washed with inositol-free DMEM (ICN). The wash media is replaced with 150 μL of 3H-inositol labeling media (inositol-free media containing 0.4% human albumin or 0.4% mouse albumin, 1× pen/strep antibiotics, glutamine, 25 mM HEPES to which is added 3H-myo-inositol NEN #NET114A 1 mCi/mL, 25 Ci/mmol diluted 1:150 in loading media with a final specific radioactivity of 1 μCi/150 μL). Alternatively, the human and mouse albumin can be added after the overnight labeling step before the addition of LiCl.
The assay is typically run the next day after 18 h labeling. On the day of the assay, 5 μL of 300 mM LiCl is added to all wells and incubated at 37 degrees for 20 min. 0.75 μL of 200× compounds are added and incubated with the cells for 60 min at 37 degrees. The media is then aspirated off and the assay terminated with the addition of 60 μL 10 mM formic acid. The cells are lysed for 60 min at room temperature. 15-30 μL of lysate is mixed with 70 μL/1 mg YSi SPA beads AMERSHAM (United Kingdom) in clear bottom Isoplates. The plates are shaken for 2 h at room temperature. Beads are allowed to settle and the plates are counted in the Wallac MICROBETA instrument. The activities of the compounds in the examples have EC50 (effective concentration of compound to afford 50% of the maximum observed […]) values listed in Table I.

Assay [2] addresses T1, Human GPR40. In words: FLIPR assay: agonist-induced calcium mobilization in GPR40/CHO NFAT BLA cells. The assay is classed as cell-based. Further details: expressed in transfected cells; host or cells: CHO cells stably expressing NFAT BLA (beta-lactamase).
Description: as §1
FLIPR (Fluorimetric Imaging Plate Reader, Molecular Devices) assays were performed to measure agonist-induced calcium mobilization of the stable clones. For the FLIPR assay, one day before assay, GPR40/CHO NFAT BLA cells were seeded into black-wall-clear-bottom 384-well plates (Costar) at 1.4×10e4 cells/20 μL medium/well. The cells were incubated with 20 μl/well of the assay buffer (HBSS, 0.1% BSA, 20 mM HEPES, 2.5 mM probenecid, pH 7.4) containing 8 μM fluo-4, AM, 0.08% pluronic acid at room temperature for 100 minutes. Fluorescence output was measured using FLIPR. Compounds were dissolved in DMSO and diluted to desired concentrations with assay buffer. 13.3 μL/well of compound solution was added. The activities of the compounds in the examples have EC50 (effective concentration of compound to afford 50% of the maximum observed fluorescence) values listed in Table I.
A general note: A change in cytosolic calcium serves as a functional read-out for many receptors and channels.

T1 sequence (O14842 whole entry): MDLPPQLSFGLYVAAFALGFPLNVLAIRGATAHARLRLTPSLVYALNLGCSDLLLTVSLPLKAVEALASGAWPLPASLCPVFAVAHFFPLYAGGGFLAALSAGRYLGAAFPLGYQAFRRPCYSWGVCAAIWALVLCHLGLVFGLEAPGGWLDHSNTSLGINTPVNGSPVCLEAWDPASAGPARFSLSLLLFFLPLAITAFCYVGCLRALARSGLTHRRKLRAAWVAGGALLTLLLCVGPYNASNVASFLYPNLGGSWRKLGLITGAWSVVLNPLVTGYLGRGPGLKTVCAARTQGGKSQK

In the case of `Cc1nc(OCC2(O)CCCCC2O)ccc1-c1ccc(F)c(COc2ccc3c(c2)C[C@H]2[C@H](C(=O)O)[C@@H]32)c1` (stereo partly drawn) [Example 26, (1S,1aS,6aR)-4-((5-(6-((1,2-dihydroxycyclohexyl)methoxy)-2-methylpyridin-3-yl)-2-fluorobenzyl)oxy)-1,1a,6,6a-tetrahydrocyclopropa[a]indene-1-carboxylic acid], the concentration giving a half-maximal response (EC50) stood at 25.5 nM at Human GPR40 [1] and 83.8 nM at Human GPR40 [2].
In the same order, the values of `Cc1nc(N2CCC(O)CC2)ccc1-c1ccc(F)c(COc2ccc3c(c2)C[C@H]2[C@H](C(=O)O)[C@@H]32)c1` [Example 41, (1S,1aS,6aR)-4-((2-fluoro-5-(6-(4-hydroxypiperidin-1-yl)-2-methylpyridin-3-yl)benzyl)oxy)-1,1a,6,6a-tetrahydrocyclopropa[a]indene-1-carboxylic acid] are 6 nM and 22.4 nM.
In the same order, the values of `CS(=O)(=O)CCCOc1ncc(-c2ccc(F)c(COc3ccc4c(c3)C[C@H]3[C@H](C(=O)O)[C@@H]43)c2)cc1C(F)(F)F` [Example 54, (1S,1aS,6aR)-4-((2-Fluoro-5-(6-(3-(methylsulfonyl)propoxy)-5-(trifluoromethyl)pyridin-3-yl)benzyl)oxy)-1,1a,6,6a-tetrahydrocyclopropa[a]indene-1-carboxylic acid] are 236 nM and 50.7 nM.
In the same order, the values of `Cc1nc(OC2CCC(C(C)(C)O)CC2)ccc1-c1ccc(F)c(COc2ccc3c(c2)C[C@H]2[C@H](C(=O)O)[C@@H]32)c1` (stereo partly drawn) [Example 38, (1S,1aS,6aR)-4-((2-fluoro-5-(6-((4-(2-hydroxypropan-2-yl)cyclohexyl)oxy)-2-methylpyridin-3-yl)benzyl)oxy)-1,1a,6,6a-tetrahydro-cyclopropa[a]indene-1-carboxylic acid] are 80.8 nM and 74.1 nM.
On to `Cc1nc(OCC2CCC[C@H](O)[C@@H]2O)ccc1-c1ccc(F)c(COc2ccc3c(c2)C[C@H]2[C@H](C(=O)O)[C@@H]32)c1` (stereo partly drawn) [Example 27, (1S,1aS,6aR)-4-((5-(6-(((2R,3S)-2,3-dihydroxycyclohexyl)methoxy)-2-methylpyridin-3-yl)-2-fluorobenzyl)oxy)-1,1a,6,6a-tetrahydrocyclopropa[a]indene-1-carboxylic acid], for which the figures for the EC50 at Human GPR40 [1] and at Human GPR40 [2] were 10 nM and 48.9 nM, respectively.
In the same order, the values of `Cc1c(-c2ccc(F)c(COc3ccc4c(c3)C[C@H]3[C@H](C(=O)O)[C@@H]43)c2)ccc2nc(-c3ccncc3)sc12` [Example 52, (1S,1aS,6aR)-4-((2-fluoro-5-(7-methyl-2-(pyridin-4-yl)benzo[d]thiazol-6-yl)benzyl)oxy)-1,1a,6,6a-tetrahydrocyclopropa[a]indene-1-carboxylic acid] are 30 nM and 35.4 nM.
For the compound `Cc1nc(OCCCN2CCCC2=O)ccc1-c1ccc(F)c(COc2ccc3c(c2)C[C@H]2[C@H](C(=O)O)[C@@H]32)c1` [Example 36, (1S,1aS,6aR)-4-((2-fluoro-5-(2-methyl-6-(3-(2-oxopyrrolidin-1-yl)propoxy)pyridin-3-yl)benzyl)oxy)-1,1a,6,6a-tetrahydrocyclo-propa[a]indene-1-carboxylic acid], the EC50 was determined as 20.5 nM on Human GPR40 [1] and 19.9 nM at Human GPR40 [2].
In the same order, the values of `Cc1nc(O[C@@H]2CO[C@H]3[C@@H]2OC[C@@H]3O)ccc1-c1ccc(F)c(COc2ccc3c(c2)C[C@H]2[C@H](C(=O)O)[C@@H]32)c1` [Example 31, (1S,1aS,6aR)-4-((2-fluoro-5-(6-(((3R,3aR,6S,6aR)-6-hydroxyhexahydrofuro[3,2-b]furan-3-yl)oxy)-2-methylpyridin-3-yl)benzyl)oxy)-1,1a,6,6a-tetrahydrocyclopropa[a]indene-1-carboxylic acid] are 14 nM and 30.9 nM.
In the same order, the values of `Cc1nc(OC[C@@H]2CCCC[C@H]2S(C)(=O)=O)ccc1-c1ccc(F)c(COc2ccc3c(c2)C[C@H]2[C@H](C(=O)O)[C@@H]32)c1` [Example 25, (1S,1aS,6aR)-4-((2-fluoro-5-(2-methyl-6-(((1S,2R)-2-(methylsulfonyl)cyclohexyl)methoxy)pyridin-3-yl)benzyl)oxy)-1,1a,6,6a-tetrahydrocyclopropa[a]indene-1-carboxylic acid] are 39 nM and 67.9 nM.
As for `Cc1nc(OCC2CCOCC2)ccc1-c1ccc(F)c(COc2ccc3c(c2)C[C@H]2[C@H](C(=O)O)[C@@H]32)c1` [Example 28, (1S,1aS,6aR)-4-((2-fluoro-5-(2-methyl-6-((tetrahydro-2H-pyran-4-yl)methoxy)pyridin-3-yl)benzyl)oxy)-1,1a,6,6a-tetrahydrocyclopropa[a]indene-1-carboxylic acid], the EC50 on Human GPR40 [1] stood at 8 nM; on Human GPR40 [2] it was 18.5 nM.
In the same order, the values of `Cc1nc(N2CCC(C#N)(c3ccccc3)CC2)nc(C)c1-c1ccc(F)c(COc2ccc3c(c2)C[C@H]2[C@H](C(=O)O)[C@@H]32)c1` [Example 44, (1S,1aS,6aR)-4-((5-(2-(4-cyano-4-phenylpiperidin-1-yl)-4,6-dimethylpyrimidin-5-yl)-2-fluorobenzyl)oxy)-1,1a,6,6a-tetrahydrocyclopropa[a]indene-1-carboxylic acid] are 221 nM and 23.2 nM.
In the same order, the values of `Cc1cc(OCCCS(C)(=O)=O)nc(C)c1-c1ccc(F)c(COc2ccc3c(c2)C[C@H]2[C@H](C(=O)O)[C@@H]32)c1` [Example 6, 4-{2-Fluoro-5-[6-(3-methanesulfonyl-propoxy)-2,4-dimethyl-pyridin-3-yl]-benzyloxy}-1,1a,6,6a-tetrahydro-cyclopropa[a]indene-1-carboxylic acid] are 22.3 nM and 57.4 nM.
As to `Cc1nc(N2CC(S(C)(=O)=O)C2)ccc1-c1ccc(F)c(COc2ccc3c(c2)C[C@H]2[C@H](C(=O)O)[C@@H]32)c1` [Example 51, (1S,1aS,6aR)-4-((2-fluoro-5-(2-methyl-6-(3-(methylsulfonyl)azetidin-1-yl)pyridin-3-yl)benzyl)oxy)-1,1a,6,6a-tetrahydrocyclopropa[a]indene-1-carboxylic acid], the concentration for a half-maximal effect (EC50) at Human GPR40 [1] worked out at 26.3 nM; on Human GPR40 [2], 23.3 nM.
For the compound `Cc1nc(OC2CCS(=O)(=O)CC2)ccc1-c1ccc(F)c(C(C)Oc2ccc3c(c2)C[C@H]2[C@H](C(=O)O)[C@@H]32)c1` (stereo partly drawn) [Example 35, (1S,1aS,6aR)-4-(1-(5-(6-((1,1-dioxidotetrahydro-2H-thiopyran-4-yl)oxy)-2-methyl-pyridin-3-yl)-2-fluorophenyl)ethoxy)-1,1a,6,6a-tetrahydrocyclo-propa[a]indene-1-carboxylic acid], the 50% effective concentration (EC50) at Human GPR40 [1] turned out to be 1390 nM; at Human GPR40 [2], 77.8 nM.
On to `Cc1nc(N2CCC(C#N)(c3ccccc3)CC2)nc(C)c1-c1ccc(F)c(COc2ccc3c(c2)C[C@H]2[C@H](C(=O)O)[C@@H]32)c1F` [Example 46, (1S,1aS,6aR)-4-((3-(2-(4-cyano-4-phenylpiperidin-1-yl)-4,6-dimethylpyrimidin-5-yl)-2,6-difluorobenzyl)oxy)-1,1a,6,6a-tetrahydrocyclopropa[a]indene-1-carboxylic acid], for which the EC50 was 629 nM at Human GPR40 [1] and 38.7 nM at Human GPR40 [2].
In the same order, the values of `Cc1cc(NCCCS(C)(=O)=O)ncc1-c1ccc(F)c(COc2ccc3c(c2)C[C@H]2[C@H](C(=O)O)[C@@H]32)c1` [Example 14, 4-{2-Fluoro-5-[6-(3-methanesulfonyl-propylamino)-4-methyl-pyridin-3-yl]-benzyloxy}-1,1a,6,6a-tetrahydro-cyclopropa[a]indene-1-carboxylic acid] are 83.5 nM and 145 nM.
In the same order, the values of `Cc1nc(N2CCC(CNS(C)(=O)=O)C2)ccc1-c1ccc(F)c(COc2ccc3c(c2)C[C@H]2[C@H](C(=O)O)[C@@H]32)c1` (stereo partly drawn) [Example 47, (1S,1aS,6aR)-4-((2-fluoro-5-(2-methyl-6-(3-(methylsulfonamidomethyl)pyrrolidin-1-yl)pyridin-3-yl)benzyl)oxy)-1,1a,6,6a-tetrahydrocyclopropa[a]indene-1-carboxylic acid] are 16 nM and 17.8 nM.

These data come from patent publication US9834563B2 (Merck Sharp & Dohme Corp., priority 2013, dated 2017).
